{"source": "patent US10047087B2", "about": "“Substituted pyrazolo[1,5-A] pyridine as tropomyosin receptor kinase (TrK) inhibitors” (Dr. Reddy's Laboratories Ltd., priority 2011, dated 2018)"}
{"biological_target": "T1, TrkA kinase (Homo sapiens, UniProt P04629)", "T1 construct": "purchased Upstate, USA", "T1 sequence (P04629 33-796)": "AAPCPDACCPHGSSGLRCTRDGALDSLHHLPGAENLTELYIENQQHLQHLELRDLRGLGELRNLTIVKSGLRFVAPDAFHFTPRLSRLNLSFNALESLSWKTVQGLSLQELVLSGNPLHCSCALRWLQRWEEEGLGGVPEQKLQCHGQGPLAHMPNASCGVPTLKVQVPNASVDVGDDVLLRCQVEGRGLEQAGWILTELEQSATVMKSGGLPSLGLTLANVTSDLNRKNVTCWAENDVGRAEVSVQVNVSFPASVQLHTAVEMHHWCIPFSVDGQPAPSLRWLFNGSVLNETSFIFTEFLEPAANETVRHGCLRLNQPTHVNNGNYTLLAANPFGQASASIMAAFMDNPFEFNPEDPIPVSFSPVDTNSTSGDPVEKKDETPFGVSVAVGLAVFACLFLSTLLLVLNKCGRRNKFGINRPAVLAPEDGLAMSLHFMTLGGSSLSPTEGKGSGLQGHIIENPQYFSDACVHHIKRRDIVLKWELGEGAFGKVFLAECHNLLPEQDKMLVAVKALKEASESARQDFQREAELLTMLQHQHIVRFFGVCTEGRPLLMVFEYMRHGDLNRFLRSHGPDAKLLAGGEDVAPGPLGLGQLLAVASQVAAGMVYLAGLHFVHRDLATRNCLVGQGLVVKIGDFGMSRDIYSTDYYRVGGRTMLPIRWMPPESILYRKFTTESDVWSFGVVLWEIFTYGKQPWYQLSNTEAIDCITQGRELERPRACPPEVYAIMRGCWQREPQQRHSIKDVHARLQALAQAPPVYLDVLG", "assay": "In vitro TrkA inhibitory activity using TR-FRET assay", "type": "biochemical", "conditions": "5 ng TrkA, 500 μM ATP, both bounds given in nm, read-out: TrkA inhibitory activity in-vitro IC50", "procedure": "(§1) Determination of In Vitro TrkA Inhibitory Activity Using TR-FRET Assay\n(§2) Compounds were screened in the TR-FRET assay with TrkA kinase. 5 ng of TrkA [Upstate, USA] kinase was used for assay. The compound was incubated with the kinase for 30 minutes at 20-35° C. After the incubation, substrate mix [40 nM Ultra light poly GT (Perkin Elmer, USA) and 500 μM ATP] was added. The above reaction was stopped by the addition of 40 mM EDTA after 30 minutes. The Eu-labelled antiphospho-tyrosine antibody [Perkin Elmer, USA] was added at 0.5 nM and the fluorescence emission at 615 nm/665 nm [excitation at 340 nm] was measured. The compounds were initially screened at 100 nM, 1 μM and 10 μM concentrations. The potent compounds with >25% inhibition at 1 μM of TrkA were taken for the full dose response studies. The final DMSO concentration in the assay was […]. For IC50 determination, ⅓^rd serial dilution was made from the 20 mM DMSO stock solution. 2 μl of these were transferred to the test wells containing 20 μl reaction mixture [Total reaction volume 22 μl]. The fluorescence was measured in Perkin Elmer Wallac 1420 Multilabel Counter Victor 3. The IC50 was determined by fitting the dose response data to a sigmoidal curve fitting equation using GraphPad Prism software version 5.", "units": {"IC50": "µM"}}
{"smiles": "CS(=O)(=O)NC(=O)c1cnn2ccc(N3CCC[C@@H]3c3cc(F)ccc3F)cc12", "note": "[Example 6, (R)-5-(2-(2,5-difluorophenyl)pyrrolidin-1-yl)-N-(methylsulfonyl)pyrazolo[1,5-a]pyridine-3-carboxamide]", "IC50": "0.1 to 0.5"}
{"smiles": "O=C(NS(=O)(=O)C1CCCC1)c1cnn2ccc(N3CCC[C@@H]3c3cc(F)ccc3F)cc12", "note": "[Example 13, (R)-N-(cyclopentylsulfonyl)-5-(2-(2,5-difluorophenyl)pyrrolidin-1-yl)pyrazolo[1,5-a] pyridine-3-carboxamide]", "IC50": "0.1 to 0.5"}
{"smiles": "Cn1cc(S(=O)(=O)NC(=O)c2cnn3ccc(N4CCC[C@@H]4c4cc(F)ccc4F)cc23)cn1", "note": "[Example 28, (R)-5-(2-(2,5-difluorophenyl)pyrrolidin-1-yl)-N-((1-methyl-1H-pyrazol-4-yl)sulfonyl) pyrazolo[1,5-a]pyridine-3-carboxamide]", "IC50": "0.1 to 0.5"}
{"smiles": "O=C(NS(=O)(=O)C1CCC1)c1cnn2ccc(N3CCC[C@@H]3c3cc(F)ccc3F)cc12", "note": "[Example 33, (R)-N-(cyclobutylsulfonyl)-5-(2-(2,5-difluorophenyl)pyrrolidin-1-yl)pyrazolo[1,5-a]pyridine-3-carboxamide]", "IC50": "0.1 to 0.5"}
{"smiles": "O=C(NS(=O)(=O)C1CCCCC1)c1cnn2ccc(N3CCC[C@@H]3c3cc(F)ccc3F)cc12", "note": "[Example 12, (R)-N-(cyclohexylsulfonyl)-5-(2-(2,5-difluorophenyl)pyrrolidin-1-yl)pyrazolo[1,5-a] pyridine-3-carboxamide]", "IC50": "0.1 to 0.5"}
{"smiles": "CC(C)CS(=O)(=O)NC(=O)c1cnn2ccc(N3CCC[C@@H]3c3cc(F)ccc3F)cc12", "note": "[Example 14, (R)-5-(2-(2,5-difluorophenyl)pyrrolidin-1-yl)-N-(isobutylsulfonyl)pyrazolo[1,5-a] pyridine-3-carboxamide]", "IC50": "0.1 to 0.5"}
{"smiles": "CC(C)(C)S(=O)(=O)NC(=O)c1cnn2ccc(N3CCC[C@@H]3c3cc(F)ccc3OCC(F)(F)F)cc12", "note": "[Example 49, (R)-N-(tert-butylsulfonyl)-5-(2-(5-fluoro-2-(2,2,2-trifluoroethoxy)phenyl)pyrrolidin-1-yl)pyrazolo[1,5-a]pyridine-3-carboxamide]", "IC50": "0.1 to 0.5"}
{"smiles": "O=C(NS(=O)(=O)c1ccc(N2CCOCC2)cc1)c1cnn2ccc(N3CCC[C@@H]3c3cc(F)ccc3F)cc12", "note": "[Example 29, (R)-5-(2-(2,5-difluorophenyl)pyrrolidin-1-yl)-N-((4-morpholinophenyl)sulfonyl) pyrazolo[1,5-a]pyridine-3-carboxamide]", "IC50": "0.1 to 0.5"}
{"biological_target": "T1, TrkA kinase", "assay": "In vitro TrkA inhibitory activity using TR-FRET assay", "type": "biochemical", "conditions": "5 ng TrkA, 500 μM ATP, lower bound in nm [sic], upper bound in μM, read-out: TrkA inhibitory activity in-vitro IC50", "procedure": "as §1, §2", "units": {"IC50": "µM"}}
{"smiles": "CC(C)(C)S(=O)(=O)NC(=O)c1cnn2ccc(N3C[C@H](F)C[C@@H]3c3cc(F)ccc3F)cc12", "note": "[Example 58, N-(tert-butylsulfonyl)-5-((2R,4R)-2-(2,5-difluorophenyl)-4-fluoropyrrolidin-1-yl) pyrazolo[1,5-a]pyridine-3-carboxamide]", "IC50": "0.5 to 1"}
{"biological_target": "T1, TrkA kinase", "assay": "In vitro TrkA inhibitory activity using TR-FRET assay", "type": "biochemical", "conditions": "5 ng TrkA, 500 μM ATP, read-out: TrkA inhibition in-vitro IC50", "procedure": "as §1, §2", "units": {"IC50": "µM"}}
{"smiles": "CCN(C)S(=O)(=O)NC(=O)c1cnn2ccc(N3CCC[C@@H]3c3cc(F)ccc3OC3CCOC3)cc12", "note": "(stereo partly drawn) [Example 139, Sodium (N-ethyl-N-methylsulfamoyl)(5-((2R)-2-(5-fluoro-2-((tetrahydrofuran-3-yl)oxy)phenyl)pyrrolidin-1-yl)pyrazolo[1,5-a]pyridine-3-carbonyl)amide]", "IC50": "≤ 0.05"}
{"smiles": "O=C(NS(=O)(=O)N1CCCC1)c1cnn2ccc(N3CCC[C@@H]3c3cc(F)ccc3F)cc12", "note": "[Example 85, (R)-5-(2-(2,5-difluorophenyl)pyrrolidin-1-yl)-N-(pyrrolidin-1-ylsulfonyl)pyrazolo[1,5-a]pyridine-3-carboxamide]", "IC50": "≤ 0.05"}
{"smiles": "CCN(CC)S(=O)(=O)NC(=O)c1cnn2ccc(N3CCC[C@@H]3c3cc(F)ccc3F)cc12", "note": "[Example 81, (R)-N-(N,N-diethylsulfamoyl)-5-(2-(2,5-difluorophenyl)pyrrolidin-1-yl)pyrazolo[1,5-a]pyridine-3-carboxamide]", "IC50": "≤ 0.05"}
{"smiles": "CN(C)S(=O)(=O)NC(=O)c1cnn2ccc(N3CCC[C@@H]3c3cccc(F)c3)c(F)c12", "note": "[Example 138, Sodium (R)-(N,N-dimethylsulfamoyl)(4-fluoro-5-(2-(3-fluorophenyl)pyrrolidin-1-yl)pyrazolo[1,5-a]pyridine-3-carbonyl)amide]", "IC50": "≤ 0.05"}
{"smiles": "CN(C(=O)c1cnn2ccc(N3CCC[C@@H]3c3cc(F)ccc3F)cc12)S(=O)(=O)c1cccc(C#N)c1", "note": "[Example 9, (R)-N-((3-cyanophenyl)sulfonyl)-5-(2-(2,5-difluorophenyl)pyrrolidin-1-yl)-N-methylpyrazolo[1,5-a] pyridine-3-carboxamide]", "IC50": "≤ 0.05"}
{"smiles": "O=C(NS(=O)(=O)c1ccc2c(c1)OCCO2)c1cnn2ccc(N3CCC[C@@H]3c3cc(F)ccc3F)cc12", "note": "[Example 34, (R)-5-(2-(2,5-difluorophenyl)pyrrolidin-1-yl)-N-((2,3-dihydrobenzo[b][1,4]dioxin-6-yl)sulfonyl)pyrazolo [1,5-a]pyridine-3-carboxamide]", "IC50": "0.05 to 0.1"}
{"smiles": "CC1(S(=O)(=O)NC(=O)c2cnn3ccc(N4CCC[C@@H]4c4cc(F)ccc4F)cc23)CC1", "note": "[Example 134, Sodium (R)-(5-(2-(2,5-difluorophenyl)pyrrolidin-1-yl)pyrazolo[1,5-a]pyridine-3-carbonyl)((1-methylcyclopropyl)sulfonyl)amide]", "IC50": "0.05 to 0.1"}
{"smiles": "O=C(NS(=O)(=O)N1CCOCC1)c1cnn2ccc(N3CCC[C@@H]3c3cc(F)ccc3F)cc12", "note": "[Example 84, (R)-5-(2-(2,5-difluorophenyl)pyrrolidin-1-yl)-N-(morpholinosulfonyl) pyrazolo[1,5-a]pyridine-3-carboxamide]", "IC50": "≤ 0.05"}
{"smiles": "O=C(NS(=O)(=O)c1ccc(N2CC[C@H](O)C2)nc1)c1cnn2ccc(N3CCC[C@@H]3c3cc(F)cc(F)c3)cc12", "note": "[Example 73, 5-((R)-2-(3,5-difluorophenyl)pyrrolidin-1-yl)-N-((6-((S)-3-hydroxypyrrolidin-1-yl)pyridin-3-yl)sulfonyl)pyrazolo[1,5-a] pyridine-3-carboxamide]", "IC50": "≤ 0.05"}
{"smiles": "CCN(CC)S(=O)(=O)NC(=O)c1cnn2ccc(N3CCC[C@@H]3c3cc(F)ccc3OC)cc12", "note": "[Example 87, (R)-N-(N,N-diethylsulfamoyl)-5-(2-(5-fluoro-2-methoxyphenyl)pyrrolidin-1-yl) pyrazolo[1,5-a]pyridine-3-carboxamide]", "IC50": "≤ 0.05"}
{"smiles": "O=C(NS(=O)(=O)N1CCCCC1)c1cnn2ccc(N3CCC[C@@H]3c3cc(F)ccc3F)cc12", "note": "[Example 89, (R)-5-(2-(2,5-difluorophenyl)pyrrolidin-1-yl)-N-(piperidin-1-ylsulfonyl)pyrazolo[1,5-a] pyridine-3-carboxamide]", "IC50": "≤ 0.05"}
{"smiles": "CC(C)(C)S(=O)(=O)NC(=O)c1cnn2ccc(N3CCC[C@@H]3c3cc(F)ccc3OC(F)F)cc12", "note": "[Example 63, (R)-N-(tert-butylsulfonyl)-5-(2-(2-(difluoromethoxy)-5-fluorophenyl)pyrrolidin-1-yl) pyrazolo[1,5-a]pyridine-3-carboxamide]", "IC50": "0.05 to 0.1"}
{"smiles": "CC(C)S(=O)(=O)NC(=O)c1cnn2ccc(N3CCC[C@@H]3c3cc(F)ccc3F)cc12", "note": "[Example 7, (R)-5-(2-(2,5-difluorophenyl)pyrrolidin-1-yl)-N-(isopropylsulfonyl)pyrazolo[1,5-a] pyridine-3-carboxamide]", "IC50": "≤ 0.05"}
{"smiles": "CCN(C)S(=O)(=O)NC(=O)c1cnn2ccc(N3CCC[C@@H]3c3cc(F)cc(F)c3OC)cc12", "note": "[Example 90, (R)-5-(2-(3,5-difluoro-2-methoxyphenyl)pyrrolidin-1-yl)-N-(N-ethyl-N-methylsulfamoyl) pyrazolo[1,5-a]pyridine-3-carboxamide]", "IC50": "≤ 0.05"}
{"smiles": "CCN(C)S(=O)(=O)NC(=O)c1cnn2ccc(N3CCC[C@@H]3c3cc(F)cc(F)c3OCCF)cc12", "note": "[Example 94, (R)-5-(2-(3,5-difluoro-2-(2-fluoroethoxy)phenyl)pyrrolidin-1-yl)-N-(N-ethyl-N-methylsulfamoyl)pyrazolo[1,5-a]pyridine-3-carboxamide]", "IC50": "≤ 0.05"}
{"biological_target": "T1, TrkA kinase", "assay": "In vitro TrkA inhibitory activity using TR-FRET assay", "type": "biochemical", "conditions": "5 ng TrkA, 500 μM ATP, read-out: TrkA inhibitory activity in-vitro IC50", "procedure": "as §1, §2", "units": {"IC50": "µM"}}
{"smiles": "CC(C)(C)S(=O)(=O)NC(=O)c1cnn2ccc(N3CCCC3c3cc(F)cc4c3OCCO4)cc12", "note": "(single isomer, unassigned) [Example 51, N-(tert-butylsulfonyl)-5-(2-(7-fluoro-2,3-dihydrobenzo [b][1,4]dioxin-5-yl)pyrrolidin-1-yl)pyrazolo[1,5-a]pyridine-3-carboxamide]", "IC50": "1 to 10"}
{"smiles": "Cc1ncc(S(=O)(=O)NC(=O)c2cnn3ccc(N4CCC[C@@H]4c4cc(F)ccc4F)cc23)n1C", "note": "[Example 16, (R)-5-(2-(2,5-difluorophenyl)pyrrolidin-1-yl)-N-((1,2-dimethyl-1H-imidazol-5-yl)sulfonyl)pyrazolo[1,5-a] pyridine-3-carboxamide]", "IC50": "1 to 10"}
{"smiles": "CC(C)(C)S(=O)(=O)NC(=O)c1cnn2ccc(N3C[C@@H](F)CC3c3cc(F)ccc3F)cc12", "note": "(single isomer, unassigned) [Example 53]", "IC50": "1 to 10"}
{"smiles": "Cn1cnc(S(=O)(=O)NC(=O)c2cnn3ccc(N4CCC[C@@H]4c4cc(F)ccc4F)cc23)c1", "note": "[Example 18, (R)-5-(2-(2,5-difluorophenyl)pyrrolidin-1-yl)-N-((1-methyl-1H-imidazol-4-yl)sulfonyl) pyrazolo[1,5-a]pyridine-3-carboxamide]", "IC50": "1 to 10"}
